Calls of active or inactive are those of the source.
Tests used:
[1] = reduction of Shn3 3'UTR-driven luciferase in osteoblasts – cell-based, Clone20 osteoblasts, firefly luciferase, cherry-picked, dose response (AID 624132); format: functional;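 also: firefly luciferase luminescence from reporter carrying the Shn3 3'UTR in osteoblasts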
[2] = molecular target: T1, Heat shock factor protein 1 (Mus musculus, UniProt P38532); test: decrease of HSF1-responsive luciferase luminescence – cell-based, NIH3T3, dose retest, confirmation (AID 2382); format: functional;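 also: NIH3T3 fibroblasts with HSF1-driven luciferase reporter stressed by proteasome inhibitor MG132; luminescence from HSF1-driven luciferase expression after 8 hours of MG132 stress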
T1 sequence (P38532 whole entry): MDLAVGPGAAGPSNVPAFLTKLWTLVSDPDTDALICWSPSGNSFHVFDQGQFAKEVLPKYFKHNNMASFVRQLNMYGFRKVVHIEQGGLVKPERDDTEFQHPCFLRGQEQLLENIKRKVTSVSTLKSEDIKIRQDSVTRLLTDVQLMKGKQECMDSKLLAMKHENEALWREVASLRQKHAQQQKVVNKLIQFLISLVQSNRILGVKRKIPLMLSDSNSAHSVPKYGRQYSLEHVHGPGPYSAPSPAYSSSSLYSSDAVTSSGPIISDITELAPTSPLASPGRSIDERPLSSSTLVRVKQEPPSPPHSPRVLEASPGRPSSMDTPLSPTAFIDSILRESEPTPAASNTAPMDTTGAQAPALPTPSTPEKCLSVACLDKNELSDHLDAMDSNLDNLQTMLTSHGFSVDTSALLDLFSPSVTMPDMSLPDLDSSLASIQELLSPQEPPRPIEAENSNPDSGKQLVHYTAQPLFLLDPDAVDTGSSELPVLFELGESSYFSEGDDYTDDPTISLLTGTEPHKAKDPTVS

[3] = system: Streptococcus sp. 'group A'; test: Streptococcus pyogenes SK(-)GAS viability under kanamycin – luminescence, BacTiterGlo, confirmation, counter-screen for streptokinase expression inhibitor project, dose response (AID 1900); format: functional, organism-based
Streptokinase A = molecular target: T2, Streptokinase A (Streptococcus pyogenes serotype M1, UniProt P10520); test: viability-normalized secreted streptokinase activity reduction – plasminogen activation absorbance, OD405, dose response (AID 1914); format: functional, Streptococcus pyogenes M1 GAS;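 also: secreted streptokinase activity via plasminogen activation per viability signal from cell pellet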
T2 sequence (P10520 whole entry): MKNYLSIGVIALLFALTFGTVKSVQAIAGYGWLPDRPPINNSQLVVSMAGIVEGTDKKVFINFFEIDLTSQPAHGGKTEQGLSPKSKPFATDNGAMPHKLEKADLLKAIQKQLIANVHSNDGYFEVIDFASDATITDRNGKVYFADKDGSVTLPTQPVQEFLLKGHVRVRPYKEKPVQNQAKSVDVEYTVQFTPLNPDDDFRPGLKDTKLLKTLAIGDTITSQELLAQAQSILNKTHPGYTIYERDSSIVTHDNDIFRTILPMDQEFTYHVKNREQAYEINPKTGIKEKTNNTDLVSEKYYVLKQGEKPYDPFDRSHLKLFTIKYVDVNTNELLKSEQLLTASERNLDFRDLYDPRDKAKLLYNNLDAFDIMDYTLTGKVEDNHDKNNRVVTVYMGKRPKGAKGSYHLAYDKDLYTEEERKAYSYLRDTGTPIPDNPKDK

Streptococcus = test: GAS UMAA2166 growth inhibition – luminescence, BacTiterGlo, counter-screen for streptokinase expression inhibitor project, dose response (AID 1915); format: functional, organism-based;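 also: potency for reduction of bacterial viability or growth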
Cytochrome P450 2C9 = Cytochrome P450 2C9 (Homo sapiens, UniProt P11712)
INS1 = test: INS-1E survival protection against cytokine death – cell-based, luminescence, retest, dose response (AID 449756); format: functional; conditions: Rattus norvegicus;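 also: cell death triggered by IL-1 beta plus TNF-alpha plus IFN-gamma mixture; protective hits raise ATP signal compared with cytokine alone wells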
[4] = molecular target: T1, Heat shock factor protein 1; test: enhancement of HSF1-driven luciferase signal – cell-based, NIH3T3, luminescence, dose retest, confirmation (AID 435004); format: functional;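 also: stress induced by proteasome inhibitor MG132 added 30 min after compound; luciferase reporter driven by HSF1 response element in NIH3T3 cells; actives raise luminescence as potentiators of the MG132 stress response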
[5] = non-specific 3'UTR reporter inhibition in Clone20-Shn3RL – cell-based, Renilla luciferase, cherry-picked, counter-screen for Shn3 inhibitor project, dose response (AID 624133); format: functional
[6] = loss of viability in HepG2 cells – cell-based, CellTiter-Glo, cherry-picked, cytotoxicity control for Shn3 inhibitor project, dose response (AID 624134); format: functional

Chain of Cytochrome P450 2C9 (P11712 whole entry): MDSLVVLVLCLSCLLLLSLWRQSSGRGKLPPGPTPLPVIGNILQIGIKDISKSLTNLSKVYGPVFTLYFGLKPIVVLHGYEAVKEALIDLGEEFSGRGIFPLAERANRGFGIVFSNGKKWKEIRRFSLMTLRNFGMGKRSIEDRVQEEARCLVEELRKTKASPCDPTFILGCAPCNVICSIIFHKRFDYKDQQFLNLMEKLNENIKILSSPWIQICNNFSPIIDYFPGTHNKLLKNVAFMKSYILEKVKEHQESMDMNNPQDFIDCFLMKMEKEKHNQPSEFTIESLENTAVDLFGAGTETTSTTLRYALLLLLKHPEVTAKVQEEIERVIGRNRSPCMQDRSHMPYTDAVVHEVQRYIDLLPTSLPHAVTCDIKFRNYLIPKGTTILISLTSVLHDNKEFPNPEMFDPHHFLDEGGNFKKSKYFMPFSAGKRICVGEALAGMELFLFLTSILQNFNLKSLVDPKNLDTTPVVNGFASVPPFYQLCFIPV

CCCC(c1nnnn1Cc1ccc(OC)cc1)N1CCN(c2ccccc2)CC1 (stereo not given)
AC50 [1]: 31.9 µM (active)

CC1Cc2ccccc2N1C(=O)C12CCC(C)(C(=O)C1)C2(C)C (stereo not given)
EC50 [2]: > 195 µM (not active)

Cc1cc(NC(=S)N(Cc2ccc(Cl)cc2)Cc2ccc(C(=O)O)cc2)ccc1Cl
EC50 [3]: 10.1 µM (active)
EC50 (Streptokinase A): > 150 µM (not active)
EC50 (Streptococcus): > 150 µM (not active)

CC(=O)Nc1ccc(Cc2ccncc2)cc1
EC50 [2]: > 195 µM (not active)

COc1cc(-c2ccc(NC(=O)NC3CC3)c(OC)c2)ccc1NC(=O)NC1CC1
EC50 [3]: 117 µM (active)
EC50 (Streptokinase A): > 150 µM (not active)
EC50 (Streptococcus): 135 µM (active)

O=C(Nc1ccc(N2CCOCC2)cc1)c1cc(-c2ccncc2)nc2ccccc12
EC50 [2]: > 195 µM (not active)

COc1ccc(NC(=O)c2cccnc2)cc1OCC(C)C
EC50 [2]: > 195 µM (not active)

O=c1cc2c(nn1Cc1ccc(Cl)cc1Cl)-c1ccccc1CC2
EC50 [3]: 7.36 µM (active)
EC50 (Streptokinase A): 11 µM (active)
EC50 (Streptococcus): 17.6 µM (active)

CC(C)C[C@@H](CC#N)N1CCN(Cc2ccccc2)CCC1=O
EC50 [2]: > 195 µM (not active)

COCC(=O)N1CCC2(CCCN(c3ccc(-c4ccccc4)cc3)C2)CC1
AC50 (Cytochrome P450 2C9): 20 µM (inconclusive)

O=C(Nc1ccc(N2C(=O)C3C4C=CC(C4)C3C2=O)cc1)Nc1nncs1 (stereo not given)
EC50 [2]: > 195 µM (not active)

O=[N+]([O-])c1cccc(-c2nc(-c3ccncc3)no2)c1
AC50 (Cytochrome P450 2C9): 8.91 µM (inconclusive)

Oc1cc(O)nc(SCc2ccc(Cl)cc2)n1
EC50 [3]: 81.5 µM (active)
EC50 (Streptokinase A): > 150 µM (not active)
EC50 (Streptococcus): > 150 µM (not active)

COc1cccc(CNCC(O)(c2ccc(Cl)cc2)c2ccc(Cl)cc2)c1
EC50 [3]: 3.15 µM (active)
EC50 (Streptokinase A): 18.9 µM (active)
EC50 (Streptococcus): 18.2 µM (active)

CCCC(=O)N(CCN(C(=O)CCC)c1ccccc1)c1ccccc1
AC50 (INS1): 183 µM (active)

COC(=O)c1ccc(CNC(=O)C(NC(=O)c2ccco2)C(C)C)cc1 (stereo not given)
EC50 [2]: > 195 µM (not active)

CCn1c(SCC(=O)c2ccccc2)nnc1-c1cccs1
AC50 (Cytochrome P450 2C9): 28.2 µM (inconclusive)

COc1ccc(N=C(S)Nc2ccccc2SC)c(OC)c1
EC50 [4]: > 260 µM (inactive)

O=C(NCc1ccco1)C1CC(O)CN1C(=O)Nc1ccccc1 (stereo not given)
EC50 [4]: > 260 µM (inactive)

COc1cc(OC)c(OC)cc1CNC(=O)c1cccc(S(=O)(=O)N2CCc3ccccc3C2)c1
AC50 [5]: 24 µM (active)
AC50 [1]: 2.39 µM (active)
AC50 [6]: 3.08 µM (active)

COc1ccc(C)cc1Cn1c(S(C)(=O)=O)nc2ccccc21
EC50 [4]: > 260 µM (inactive)

Cn1c(=O)c2cn(Cc3ccc(Cl)cc3)cc2n(C)c1=O
EC50 [2]: > 195 µM (not active)

O=C(/C=C/c1ccc(Cl)cc1)NCCSc1ccccc1
AC50 (Cytochrome P450 2C9): 5.01 µM (inconclusive)

Cn1c(CCC(=O)OCC(=O)Nc2ccc(Oc3ccccc3)cc2)nc(=O)c2ccccc21
EC50 [4]: > 260 µM (inactive)

O=S(=O)(NC(=Nc1cccc2ccccc12)c1ccccc1)c1ccc(F)cc1
EC50 [4]: > 260 µM (inactive)

COc1ccc(S(=O)(=O)NCC(c2ccc(F)cc2)N2CCN(C)CC2)cc1 (stereo not given)
EC50 [3]: > 150 µM (not active)
EC50 (Streptokinase A): > 150 µM (not active)
EC50 (Streptococcus): > 150 µM (not active)

— ChEMBL document CHEMBL1201862, “PubChem BioAssay data set” (2004)
